19 compounds from US20190375708A1 (VenatoRx Pharmaceuticals, Inc., priority 2018, published 2019) can be followed below.

The subject of data set [1] is HBV replication in HepAD38 cells. The data set is described as follows: Anti-HBV replication assay in HepAD38 cells (QPCR of extracellular HBV DNA). The data set is classed as cell-based, HBV (genotype D, serotype ayw). The note with it: Hepatitis B virus, 168 h, 7 days incubation, extracellular HBV DNA by QPCR, read-out: Anti-HBV EC50. The gist of the method:
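HepAD38 cells (HepG2 carrying a tet-repressible HBV genotype D genome) were seeded in tetracycline-free medium and treated next day with compound […] for 7 days. Supernatant HBV DNA was measured by QPCR against a standard curve; EC50 came from 4-parameter fits of inhibition versus DMSO control.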

The nature of data set [2]: In vitro cytotoxicity assay (MTT cell viability) in HepG2 cells. Format: cell-based, human. The note with it: human. In outline: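 Parental HepG2 cells in EMEM + 10% FBS were exposed to compounds (8 half-log dilutions, 30 μM to 1.0 nM) for 7 days at 37 °C, 5% CO2. MTT was then added for 3-4 h, formazan dissolved in DMSO and absorbance read at 492 nm; CC50 came from 4-parameter fits against vehicle controls.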

SMILES strings stand for the structures.

For the compound `Cc1cc(NC(=O)c2c(C)c(C(=O)C(=O)N[C@@H](C(=O)O)[C@H](C)O)n(C)c2C)ccc1F` [Example 35, (2-(4-((4-fluoro-3-methylphenyl)carbamoyl)-1,3,5-trimethyl-1H-pyrrol-2-yl)-2-oxoacetyl)-D-threonine], in data set [1], the 50% effective concentration (EC50) is > 1 µM. In addition, the 50% cytotoxic concentration (CC50) at 7 days in data set [2] is > 30 µM.

`Cc1cc(NC(=O)c2c(C)c(C(=O)C(=O)NC3CCSCC3)n(C)c2C)cnc1F` [Example 191, N-(6-fluoro-5-methylpyridin-3-yl)-1,2,4-trimethyl-5-(2-oxo-2-((tetrahydro-2H-thiopyran-4-yl)amino)acetyl)-1H-pyrrole-3-carboxamide]: in data set [1], the EC50 is < 0.05 µM. Also, the cytotoxic concentration (CC50) at 7 days in data set [2] is > 30 µM.

`Cc1cc(NC(=O)c2c(C)c(C(=O)C(=O)N[C@@H](C(N)=O)C3CCCCC3)n(C)c2C)ccc1F` [Example 102, (R)-5-(2-((2-amino-1-cyclohexyl-2-oxoethyl)amino)-2-oxoacetyl)-N-(4-fluoro-3-methylphenyl)-1,2,4-trimethyl-1H-pyrrole-3-carboxamide]: in data set [1], the EC50 was < 0.05 µM. Moreover, the CC50 at 7 days in data set [2] was 0.5 to 4.99 µM.

Take `Cc1cc(NC(=O)c2c(C)c(C(=O)C(=O)NC3(C(=O)NC(C)(C)CO)CCOCC3)n(C)c2C)ccc1F` [Example 681, N-(4-fluoro-3-methylphenyl)-5-(2-((4-((1-hydroxy-2-methylpropan-2-yl)carbamoyl)tetrahydro-2H-pyran-4-yl)amino)-2-oxoacetyl)-1,2,4-trimethyl-1H-pyrrole-3-carboxamide]: the half-maximal effective concentration (EC50) in data set [1] was < 0.05 µM. Besides, the CC50 at 7 days in data set [2] is > 30 µM.

Turning to `Cc1cc(NC(=O)c2c(C)c(C(=O)C(=O)Nc3cccc(B(O)O)c3)n(C)c2C)ccc1F` [Example 254, (3-(2-(4-((4-fluoro-3-methylphenyl)carbamoyl)-1,3,5-trimethyl-1H-pyrrol-2-yl)-2-oxoacetamido)phenyl)boronic acid], the EC50 in data set [1] was < 0.05 µM. The CC50 at 7 days in data set [2] was in the range of 5 to 30 µM.

For `CC(C)(C)NC(=O)C(=O)c1cc(C(=O)Nc2ccc(F)c(Cl)c2)c2n1CCCC2` [Example 399, 3-(2-(tert-butylamino)-2-oxoacetyl)-N-(3-chloro-4-fluorophenyl)-5,6,7,8-tetrahydroindolizine-1-carboxamide], the EC50 in data set [1] fell in the range of 0.05 to 0.499 µM. Moreover, the CC50 at 7 days in data set [2] was > 30 µM.

On to `Cc1cc(NC(=O)c2c(C)c(C(=O)C(=O)NC(C)(C)C(=O)O)n(C)c2C)ccc1F` [Example 29, 2-(2-(4-((4-fluoro-3-methylphenyl)carbamoyl)-1,3,5-trimethyl-1H-pyrrol-2-yl)-2-oxoacetamido)-2-methylpropanoic acid], for which the EC50 in data set [1] fell in the range of 0.5 to 1 µM. In data set [2], the CC50 at 7 days is > 30 µM.

Take `Cc1c(C(=O)Nc2ccc(F)c(F)c2)c(C)n(C)c1C(=O)C(=O)Nc1ccc(F)cn1` [Example 295, N-(3,4-difluorophenyl)-5-(2-((5-fluoropyridin-2-yl)amino)-2-oxoacetyl)-1,2,4-trimethyl-1H-pyrrole-3-carboxamide]: the EC50 in data set [1] is < 0.05 µM. The compound further returned a CC50 at 7 days in data set [2] of 5 to 30 µM.

On to `Cc1cc(NC(=O)c2c(C)c(C(=O)C(=O)NC3(C)CCN(C(=O)c4cnn(C)c4)CC3)n(C)c2C)ccc1F` [Example 693, N-(4-fluoro-3-methylphenyl)-1,2,4-trimethyl-5-(2-((4-methyl-1-(1-methyl-1H-pyrazole-4-carbonyl)piperidin-4-yl)amno)-2-oxoacetyl)-1H-pyrrole-3-carboxamide], for which the concentration giving a half-maximal response (EC50) in data set [1] was < 0.05 µM. Besides, the CC50 at 7 days in data set [2] was > 30 µM.

As for `Cc1noc([C@H](C)NC(=O)C(=O)c2c(Cl)c(C(=O)Nc3ccnc(F)c3)c3n2CCCC3)n1` [Example 509, (S)-2-chloro-N-(2-fluororpyridin-4-yl)-3-(2-((1-(3-methyl-1,2,4-oxadiazol-55-yl)ethyl)amino)-2-oxoacetyl)-5,6,7,8-tetrahydroindoliznie-1-carboxamide], in data set [1], the EC50 lay within 0.5 to 1 µM. In data set [2], the CC50 at 7 days was > 30 µM.

Regarding `Cc1csc(NC(=O)C(=O)c2c(C)c(C(=O)Nc3cnc(F)c(C)c3)c(C)n2C)n1` [Example 342, N-(6-fluoro-5-methylpyridin-3-yl)-1,2,4-trimethyl-5-(2-((4-methylthiazol-2-yl)amino)-2-oxoacetyl)-1H-pyrrole-3-carboxamide], the EC50 in data set [1] fell in the range of 0.5 to 1 µM. Besides, in data set [2], the CC50 at 7 days is > 30 µM.

`Cc1cc(NC(=O)c2c(C)c(C(=O)C(=O)NC3(CO)CCCCC3)n(C)c2C)ccc1F` [Example 599, N-(4-fluoro-3-methylphenyl)-5-(2-((1-(hydroxymethyl)cyclohexyl)amino)-2-oxoacetyl)-1,2,4-trimethyl-1H-pyrrole-3-carboxamide]: in data set [1], the EC50 is < 0.05 µM. The CC50 at 7 days in data set [2] was > 30 µM.

Consider `Cc1cc(NC(=O)c2c(Cl)c(C(=O)C(=O)NCC(C)(C)CO)n3c2CCCC3)ccc1F` [Example 498, 2-chloro-N-(4-fluoro-3-methylphenyl)-3-(2-((3-hydroxy-2,2-dimethylpropyl)amino)-2-oxoacetyl)-5,6,7,8-tetrahydroindolizine-1-carboxamide], for which, in data set [1], the EC50 fell in the range of 0.05 to 0.499 µM. For the same compound, the half-maximal cytotoxic concentration (CC50) at 7 days in data set [2] was > 30 µM.

In the case of `Cc1c(C(=O)Nc2ccc(F)c(F)c2)c(C)n(C)c1C(=O)C(=O)NC(C)(C)CO` [Example 148, N-(3,4-difluorophenyl)-5-(2-((1-hydroxy-2-methylpropan-2-yl)amino)-2-oxoacetyl)-1,2,4-trimethyl-1H-pyrrole-3-carboxamide], the half-maximal effective concentration (EC50) in data set [1] is < 0.05 µM. In addition, the cytotoxic concentration (CC50) at 7 days in data set [2] was > 30 µM.

On to `Cc1cc(NC(=O)c2c(Cl)c(C(=O)C(=O)NC(C)(C)C(F)(F)F)n3c2CCCC3)cnc1F` [Example 730, 2-chloro-N-(6-fluoro-5-methylpyridin-3-yl)-3-(2-oxo-2-((1,1,1-trifluoro-2-methylpropan-2-yl)amino)acetyl)-5,6,7,8-tetrahydroindolizine-1-carboxamide], for which the EC50 in data set [1] is 0.05 to 0.499 µM. Also, in data set [2], the CC50 at 7 days is > 30 µM.

Consider `Cc1cc(NC(=O)c2c(C)c(C(=O)C(=O)N[C@H]3COC[C@@H]3O)n(C)c2C)ccc1F` [Example 128, N-(4-fluoro-3-methylphenyl)-5-(2-(((3S,4R)-4-hydroxytetrahydrofuran-3-yl)amino)-2-oxoacetyl)-1,2,4-trimethyl-1H-pyrrole-3-carboxamide], for which, in data set [1], the EC50 was < 0.05 µM. Besides, the CC50 at 7 days in data set [2] is > 30 µM.

For `Cc1cc(NC(=O)c2c(C)c(C(=O)C(=O)N3CCC(F)(F)C3)n(C)c2C)cnc1F` [Example 192, 5-(2-(3,3-difluoropyrrolidin-1-yl)-2-oxoacetyl)-N-(6-fluoro-5-methylpyridin-3-yl)-1,2,4-trimethyl-1H-pyrrole-3-carboxamide], the concentration for a half-maximal effect (EC50) in data set [1] lay within 0.5 to 1 µM. Further, the CC50 at 7 days in data set [2] is > 30 µM.

As for `O=C(N[C@H]1C[C@H](O)C1)C(=O)c1c(Cl)c(C(=O)Nc2ccc(F)c(F)c2)c2n1CCC2` [Example 551, 6-chloro-N-(3,4-difluorophenyl)-5-(2-(((1r,3r)-3-hydroxycyclobutyl)amino)-2-oxoacetyl)-2,3-dihydro-1H-pyrrolizine-7-carboxamide], the EC50 in data set [1] lay in the range of 0.05 to 0.499 µM. Further, the CC50 at 7 days in data set [2] was > 30 µM.

Take `Cc1cc(NC(=O)c2c(C)c(C(=O)C(=O)NC3(C(F)(F)F)CC3)n(C)c2C)cnc1F` [Example 234, N-(6-fluoro-5-methylpyridin-3-yl)-1,2,4-trimethyl-5-(2-oxo-2-((1-(trifluoromethyl)cyclopropyl)amino)acetyl)-1H-pyrrole-3-carboxamide]: in data set [1], the EC50 is < 0.05 µM. Moreover, the CC50 at 7 days in data set [2] is > 30 µM.

As usually defined, the EC50 is the midpoint of the concentration-response curve. As usually defined, the CC50 is the concentration at which the toxic effect on the cells reaches its halfway point. A lower CC50 goes with harm at low concentration.
